{"source": "patent US11318190B2", "about": "“Methods and compositions for treating liver disease” (UNITED STATES GOVERNMENT AS REPRESENTED BY THE DEPARTMENT …, priority 2017, dated 2022)", "key": {"dnTGF-βRII mice": {"system": "dnTGF-βRII mice", "assay": "dnTGF-βRII mice 12 wk (early stage PBC model) treated 1 wk by osmotic minipump", "type": "in vivo, mouse", "details": "dnTGF-βRII 12 wk", "procedure": "Briefly, we used wild-type (WT), dnTGFβRII 12 wk and dnTGFβRII 34 wk mice treated with control or SR antagonist (SCT 5-27) minipump (10 μg/kg/day) for 1 wk. Hepatic damage was shown by H&E. IBDM and cholangiocyte proliferation were measured by immunohistochemistry for CK-19 and Ki67, respectively. Biliary apoptosis was evaluated by TUNEL staining. Senescence was measured in cholangiocytes by immunofluorescence for CCL2 or p16 co-stained with CK-19 (to image bile ducts) and SA-β-Galactosidase activity. Hepatic fibrosis was assessed by qPCR for collagen-1a and α-SMA in total liver, and quantification of Sirius Red staining. Hepatic stellate cell (HSC) activation was evaluated by immunofluorescence (IF) for Syp-9. HSC senescence was evaluated by IF for CCL2 or p16 co-stained with desmin (to visualize HSCs). Secretin levels in serum and bile were measured by EIA. Bile and serum were obtained from human control, early PBC and advanced PBC patients, and secretin was evaluated by EIA.\nAll animal procedures were performed according to protocols approved by the Baylor Scott & White Health IACUC Committee. Transgenic mice expressing a dominant-negative form of the human transforming growth factor-beta receptor II (dnTGF-βRII) were obtained from Dr. M. Eric Gershwin at UC Davis Health (Sacramento, Calif.), and background-matched wild-type (WT, strain C57BL/6) mice were purchased from Charles River Laboratories (Wilmington, Mass.); the breeding colony is established in our animal facility. Animals were maintained in micro-isolator cages in a temperature-controlled environment with 12/12-hr light/dark cycles and fed ad libitum standard chow with free access to drinking water. Studies were performed in 12 wk-old WT mice, and 12 wk-old (mimic early stage PBC) and 32 wk-old (mimic late stage PBC) female and male dnTGF-βRII mice (25-30 gm) that were treated with either saline, secretin (Sct; 2.5 nmoles/kg body weight per day; Bachem, Torrance, Calif.) or the secretin receptor (SR) antagonist, Sec 5-27 (10 μg/kg body weight per day; Thermo Fisher Scientific, Waltham, Mass.) for 1 wk by intraperitoneally implanted osmotic minipump. Liver tissue samples and blocks (formalin-fixed, paraffin-embedded and OCT-embedded), serum, bile, cholangiocytes, and cholangiocyte supernatants (after incubation at 37° C. for 4 hr) were collected as described.\nHematoxylin and eosin (H&E) staining was performed in formalin-fixed, paraffin-embedded liver sections (4-5 μm, 3 samples from 3 different animals) to determine liver morphology. H&E stained liver sections were evaluated by a board-certified pathologist to assess the degree of lobular damage, hepatic necrosis and portal inflammation. At least 10 different portal areas were evaluated for each parameter. Liver sections were examined in a coded fashion by BX-51 light microscopy (Olympus, Tokyo, Japan) equipped with a camera (See, Mancinelli, R et al., Ischemia reperfusion of the hepatic artery induces the functional damage of large bile ducts by changes in the expression of angiogenic factors. Am J Physiol Gastrointest Liver Physiol 2015; 309:G865-873 (2015); Taffetani S et al., Prolactin stimulates the proliferation of normal female cholangiocytes by differential regulation of Ca2+-dependent PKC isoforms, BMC Physiol 7:6 (2007)).\nSerum levels of alkaline phosphatase (ALP) and γ-glutamyltransferase (γGT) are commonly used to diagnose PBC (Heathcote, E J, Management of primary biliary cirrhosis. The American Association for the Study of Liver Diseases practice guidelines, Hepatology 31:1005-1013 (2000)); therefore, were measured serum levels of ALP and γGT in mouse serum samples using the Alkaline Phosphatase Assay Kit and γ-Glutamyltransferase Activity Colorimetric Assay Kit, respectively (Abcam; Cambridge, Mass.).\nEarly stage PBC is identified by cholangiocyte proliferation, whereas late stage PBC is characterized by ductopenia. […]"}, "HHSteCs": {"system": "HHSteCs", "assay": "HHSteCs incubated with biliary/IMCL supernatants with/without LY2109761, or with TGF-β1 (Example 2)", "type": "cell-based, human", "procedure": "Biliary supernatants were obtained from normal and BDL WT mice and Sct^−/−, SR^−/− and Sct^−/−/SR^−/− BDL mice as well as normal WT mice treated with saline or secretin. HHSteCs were incubated with the aforementioned biliary supernatants (containing different levels of TGF-β1) for 24 hr (in the absence or presence of LY2109761) before measuring the expression of senescence and fibrosis genes by real-time PCR. Furthermore, HHSteCs were incubated with the supernatant of large IMCLs treated for 0.2% bovine serum albumin (basal) or secretin (10 nM) with/without LY2109761 for 6 hr before measuring the mRNA expression of fibrosis and senescence genes. To provide direct evidence that TGF-β1 directly modulates fibrosis and senescence of IMCLs and HHSteCs, these cells were stimulated with TGF-β1 (10 nM) for 24 hr before measuring the expression of PCNA as well as fibrosis and senescence genes by real-time PCR."}, "[1]": {"details": "cholangiocyte supernatant from secretin-treated WT mice, 24 hr"}, "[2]": {"details": "supernatant of large IMCLs after secretin 10 nM, 6 hr"}}, "data": [{"substance": "secretin [Sct]", "values": [{"measurement": "HSC activation (SYP-9 staining)", "setting": "dnTGF-βRII mice", "value": "further enhanced"}, {"measurement": "biliary senescence (p16, p18, p21, CCL2)", "setting": "dnTGF-βRII mice", "value": "further increased"}, {"measurement": "cholangiocyte apoptosis (TUNEL-positive cholangiocytes)", "setting": "dnTGF-βRII mice", "value": "further reduced"}, {"measurement": "liver damage (H&E: portal inflammation, inflammatory infiltration, lobular necrosis)", "setting": "dnTGF-βRII mice", "value": "further increased"}, {"measurement": "Sct, SR, CFTR and AE2 expression", "setting": "dnTGF-βRII mice; vs saline treated", "value": "further increase"}, {"measurement": "collagen content / deposition (Sirius Red), hepatic fibrosis", "setting": "dnTGF-βRII mice; vs saline treated", "value": "further enhanced"}, {"measurement": "serum levels of ALP and γGT", "setting": "dnTGF-βRII mice; vs saline treated", "value": "further increased"}, {"measurement": "intrahepatic bile duct mass (IBDM, CK-19)", "setting": "dnTGF-βRII mice; vs saline treated, 1 wk minipump", "value": "further increase"}, {"measurement": "expression of fibrosis genes in HHSteCs", "setting": "HHSteCs; [1]", "value": "increased expression"}, {"measurement": "expression of senescence genes in HHSteCs", "setting": "HHSteCs; [1]", "value": "reduced expression"}, {"measurement": "expression of senescence genes of HHSteCs", "setting": "HHSteCs; [2]", "value": "decreases"}, {"measurement": "fibrosis gene expression of HHSteCs", "setting": "HHSteCs; [2]", "value": "increases"}]}]}
